What all share (assay): NCI anticancer screen, dose series, 48 h
The subject of experiment [1] is NCI-H23.
For experiment [2], the system named is NCI-H522.
In experiment [3] the test system is NCI/ADR-RES.
The subject of experiment [4] is OVCAR-3.
Experiment [5] concerns OVCAR-4.
Experiment [6] concerns OVCAR-8.
Experiment [7] relates to PC-3.
In experiment [8] the test system is SF-295.
For experiment [9], the system named is SK-MEL-28.
Experiment [10] has as its system SK-MEL-2.
In experiment [11] the test system is SK-OV-3.
The test system of experiment [12] is SNB-19.
Experiment [13] deals with TK-10.
Experiment [14] deals with UACC-257.
For experiment [15], the system named is UACC-62.
In experiment [16] the test system is ACHN.
Experiment [17] deals with K562.
Experiment [18] deals with SNB-75.
Experiment [19] has as its system UO-31.
Experiment [20] deals with HOP-92.

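Cells were grown in 96-well plates and exposed to each compound for 48 hours at five concentrations; endpoints were interpolated linearly between bracketing concentrations, or set to the highest concentration if not reached. The concentration for 50% growth inhibition is given as GI50.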 Active and inactive are the calls of the source. Cut-off read from the data, not from the text of the source: active = GI50 up to about 1.1 µM and inactive = higher. Peptide text beside a SMILES is read from it. * marks the point of attachment. Boc = CC(C)(C)OC(=O)* Some results are limits rather than exact numbers.

The text below walks through data of ChEMBL document CHEMBL1201862, “PubChem BioAssay data set” (2004).

For the compound `c1ccc(C2=NCCc3cc4c(cc32)OCO4)cc1`, the GI50 in [1], in experiment [2], in experiment [3], in experiment [4], in [5] and in experiment [6] was > 100 µM (inactive) in each case. Besides, the GI50 in [7], in experiment [8], in [9], in [10], in experiment [11] and in [12] was > 100 µM (inactive) throughout. Also, the GI50 in [13], in experiment [14] and in [15] was > 100 µM (inactive) each time.
Take `N=c1c2ccccc2nc2oc3ccc(Cl)cc3n12`: the GI50 in experiment [16] is 11.5 µM (inactive); in [17], 9.2 µM (inactive); in experiment [1], 14.1 µM (inactive); in experiment [2] it was 17.3 µM (inactive); in [3] it was 48.3 µM (inactive); in experiment [4], 13.9 µM (inactive). Also, the GI50 in experiment [5] was 2.77 µM (inactive); in experiment [6] it was 9.66 µM (inactive); in [7] it was 33.1 µM (inactive); in [8], 12.8 µM (inactive); in [9] it was 25.2 µM (inactive); in [10], 20.6 µM (inactive). Moreover, the GI50 was 13.1 µM (inactive) in [11]; 8.22 µM (inactive) in experiment [12]; 2.75 µM (inactive) in experiment [18]; 20 µM (inactive) in experiment [13]; > 100 µM (inactive) in experiment [14]; 37.7 µM (inactive) in [15]. For the same compound, the GI50 in [19] is 16.4 µM (inactive).
Take `CC(NC(=O)OC(C)(C)C)C(=O)NC(Cc1ccccc1)C(=O)NCC(=O)O` (stereo not drawn) (Boc-Ala-Phe-Gly-OH; configuration not given here): the GI50 in experiment [16], in experiment [20], in experiment [17], in experiment [1], in experiment [2] and in [3] was > 100 µM (inactive) each time. Besides, the GI50 in experiment [4], in experiment [6], in experiment [7], in experiment [8], in experiment [9] and in experiment [10] was > 100 µM (inactive) in each case. Besides, the GI50 in [11], in [12], in experiment [18], in [13], in [14] and in [15] was > 100 µM (inactive) throughout. In [19], the GI50 was > 100 µM (inactive).
On to `CC(=O)CC(=O)c1cc2c(=O)oc(C)cc2oc1=O`, for which the GI50 in experiment [16], in experiment [17], in [1], in experiment [2], in [3] and in experiment [4] was > 37.5 µM (inactive) throughout. For the same compound, the GI50 in [5], in experiment [6], in experiment [7], in [8], in experiment [9] and in [10] was > 37.5 µM (inactive) throughout. Besides, the GI50 in experiment [11] is > 37.5 µM (inactive); in experiment [12], > 37.5 µM (inactive); in experiment [18], 2.75 µM (inactive); in experiment [13], > 37.5 µM (inactive); in [14], > 37.5 µM (inactive); in [15], > 37.5 µM (inactive). In addition, the GI50 in [19] is > 37.5 µM (inactive).
Consider `C[C@@](Br)(C(=O)O)[C@H](Br)C(=O)O`, for which the GI50 in experiment [16], in experiment [20], in experiment [17], in experiment [1], in [3] and in experiment [4] was > 100 µM (inactive) throughout. Also, the GI50 in [5], in [6], in experiment [7], in [8], in experiment [9] and in experiment [11] was > 100 µM (inactive) each time. Moreover, the GI50 in [12] is > 100 µM (inactive); in experiment [18], 81.3 µM (inactive); in experiment [13], > 100 µM (inactive); in experiment [14] it was > 100 µM (inactive); in experiment [15], > 100 µM (inactive); in experiment [19], > 100 µM (inactive).
With `CCOC(=O)c1nc2cc(C(F)(F)F)ccc2nc1Nc1ccc(OC)cc1`, the GI50 in [16] is 86.9 µM (inactive); in experiment [20], 36.6 µM (inactive); in experiment [1], > 100 µM (inactive); in experiment [2], > 100 µM (inactive); in experiment [3], > 100 µM (inactive); in [4], > 100 µM (inactive). In addition, the GI50 is > 100 µM (inactive) in experiment [6]; > 100 µM (inactive) in experiment [7]; 81.3 µM (inactive) in experiment [8]; > 100 µM (inactive) in [9]; > 100 µM (inactive) in experiment [10]; 54.3 µM (inactive) in experiment [12]. Further, the GI50 was 55.6 µM (inactive) in experiment [18]; > 100 µM (inactive) in [13]; > 100 µM (inactive) in experiment [14]; > 100 µM (inactive) in [15]; > 100 µM (inactive) in experiment [19].
`CCCC#CCOC(=O)c1cc([N+](=O)[O-])cc([N+](=O)[O-])c1`: the GI50 in [16] was > 100 µM (inactive); in experiment [20], > 100 µM (inactive); in experiment [17], > 100 µM (inactive); in experiment [1] it was > 100 µM (inactive); in [2], 43.4 µM (inactive); in experiment [3], > 100 µM (inactive). Also, the GI50 in experiment [4], in experiment [6], in [7], in experiment [8], in [9] and in experiment [10] was > 100 µM (inactive) each time. Also, the GI50 in experiment [11], in experiment [12], in experiment [18], in experiment [13], in experiment [14] and in [15] was > 100 µM (inactive) each time. Besides, in [19], the GI50 was > 100 µM (inactive).
Take `COc1ccc(/C=C2\CCCc3ccccc3C2=O)cc1`: the GI50 in [16] was 3.15 µM (inactive); in [20], 0.893 µM (active); in experiment [17], 0.33 µM (active); in [1], 0.122 µM (active); in [2] it was < 0.0218 µM (active); in experiment [3] it was 0.0416 µM (active). Besides, the GI50 in [4] is 0.0982 µM (active); in [5] it was 14.5 µM (inactive); in [6], 0.228 µM (active); in experiment [7], 0.321 µM (active); in [8], 0.026 µM (active); in experiment [9], 3.83 µM (inactive). Moreover, the GI50 in experiment [11] is 0.119 µM (active); in experiment [12], 0.36 µM (active); in experiment [18], 0.0649 µM (active); in [13] it was 9.06 µM (inactive); in [14] it was 3.13 µM (inactive); in experiment [15], 0.0292 µM (active). In addition, the GI50 in [19] is 1.64 µM (inactive).
